Laboratory results: publication PMC9866191, “Novel 9-Benzylaminoacridine Derivatives as Dual Inhibitors of Phosphodiesterase 5 and Topoisomerase II for the Treatment of Colon Cancer” (Molecules, 2023)

How the values were obtained:
SF-268 = assay: NCI-60 one-dose screen; format: cell-based; conditions: Homo sapiens; SF-268, CNS Cancer panel; single dose 10^−5 M; read-out: Growth inhibition %
PDE5A = molecular target: T1, PDE5A (Homo sapiens, UniProt O76074); assay: Phosphodiesterase 5 HTRF cGMP assay; format: biochemical; conditions: for IC50: means ± S.D. (n = 4), read-out: PDE5 IC50; for inhibition at 10 µM: read-out: PDE5 % Inhibition at 10 μM
T1 construct: purchased BPS Bioscience, San Diego, CA, USA
Procedure: All the synthesized acridine derivatives were tested for their in vitro ability to inhibit PDE5A at a screening dose of 10 µM.
The enzyme activities of phosphodiesterase 5 (PDE5) were measured using an HTRF cGMP assay kit (Cisbio, Codolet, France). […] Afterward, the HTRF reagent (cGMP-d2 and anti-cGMP-cryptate) was added for 1 h at 25 °C, and PDE activity was assayed on an HTRF reader (Tecan Infinite F200 Pro).

CCD-966SK = assay: MTT cell proliferation assay, CCD-966SK; conditions: CCD966SK skin fibroblast; 10 µM; 72 h MTT
Procedure: (§1) In the MTT assay, 96-well culture plates were used. A total of 7 × 10^4 cells per well were seeded, and test materials were added to the cells at various concentrations [47, 48]. Human cancer and non-cancer cell lines were purchased commercially from the American Type Culture Collection (ATCC). After 72 h, the cytotoxicity of the compounds and paclitaxel (as a positive control group) was detected using the MTT method (thiazolyl blue tetrazolium bromide, Sigma-M2128). Absorbance values at 570 and 620 nm (OD = OD570–OD620) were measured using an ELISA reader (Anthos Labtec Instruments, Salzburg, Austria).

HCT-116 = assay: MTT cell proliferation assay, HCT-116; conditions: for % Inhibition at 10 µM: 72 h MTT, means ± SD; for IC50: read-out: IC50 μM, 72 h MTT, means ± SD, three experiments
Procedure: as §1

OVCAR-8 = assay: NCI-60 one-dose screen; format: cell-based; conditions: Homo sapiens; OVCAR-8, Ovarian Cancer panel; single dose 10^−5 M; read-out: Growth inhibition %
SR = assay: NCI-60 one-dose screen; format: cell-based; conditions: Homo sapiens, Leukemia panel, single dose 10^−5 M, read-out: Growth inhibition %
KM12 = assay: NCI-60 one-dose screen; format: cell-based; conditions: Homo sapiens; KM12, Colon Cancer panel; single dose 10^−5 M; read-out: Growth inhibition %
NCI-H226 = assay: NCI-60 one-dose screen; format: cell-based; conditions: Homo sapiens; NCI-H226, Non-small cell lung panel; single dose 10^−5 M; read-out: Growth inhibition %
CAKI-1 = assay: NCI-60 one-dose screen; format: cell-based; conditions: Homo sapiens; CAKI-1, Renal Cancer panel; single dose 10^−5 M; read-out: Growth inhibition %
SW-620 = assay: NCI-60 one-dose screen; format: cell-based; conditions: Homo sapiens; SW-620, Colon Cancer panel; single dose 10^−5 M; read-out: Growth inhibition %
UO-31 = assay: NCI-60 one-dose screen; format: cell-based; conditions: Homo sapiens; UO-31, Renal Cancer panel; single dose 10^−5 M; read-out: Growth inhibition %
MDA-MB-435 = assay: NCI-60 one-dose screen; format: cell-based; conditions: Homo sapiens; MDA-MB-435, Melanoma panel; single dose 10^−5 M; read-out: Growth inhibition %
MOLT-4 = assay: NCI-60 one-dose screen; format: cell-based; conditions: Homo sapiens; MOLT-4, Leukemia panel; single dose 10^−5 M; read-out: Growth inhibition %
HS 578T = assay: NCI-60 one-dose screen; format: cell-based; conditions: Homo sapiens, Breast Cancer panel, single dose 10^−5 M, read-out: Growth inhibition %
SK-MEL-28 = assay: NCI-60 one-dose screen; format: cell-based; conditions: Homo sapiens; SK-MEL-28, Melanoma panel; single dose 10^−5 M; read-out: Growth inhibition %
EKVX = assay: NCI-60 one-dose screen; format: cell-based; conditions: Homo sapiens, Non-small cell lung panel, single dose 10^−5 M, read-out: Growth inhibition %
OVCAR-3 = assay: NCI-60 one-dose screen; format: cell-based; conditions: Homo sapiens; OVCAR-3, Ovarian Cancer panel; single dose 10^−5 M; read-out: Growth inhibition %
BT-549 = assay: NCI-60 one-dose screen; format: cell-based; conditions: Homo sapiens; BT-549, Breast Cancer panel; single dose 10^−5 M; read-out: Growth inhibition %
786-0 = assay: NCI-60 one-dose screen; format: cell-based; conditions: Homo sapiens; 786-0, Renal Cancer panel; single dose 10^−5 M; read-out: Growth inhibition %
ACHN = assay: NCI-60 one-dose screen; format: cell-based; conditions: Homo sapiens, Renal Cancer panel, single dose 10^−5 M, read-out: Growth inhibition %
SK-MEL-5 = assay: NCI-60 one-dose screen; format: cell-based; conditions: Homo sapiens; SK-MEL-5, Melanoma panel; single dose 10^−5 M; read-out: Growth inhibition %
HCT-15 = assay: NCI-60 one-dose screen; format: cell-based; conditions: Homo sapiens; HCT-15, Colon Cancer panel; single dose 10^−5 M; read-out: Growth inhibition %
MDA-MB-231/ATCC = assay: NCI-60 one-dose screen; format: cell-based; conditions: Homo sapiens, Breast Cancer panel, single dose 10^−5 M, read-out: Growth inhibition %
DU-145 = assay: NCI-60 one-dose screen; format: cell-based; conditions: Homo sapiens; DU-145, Prostate Cancer panel; single dose 10^−5 M; read-out: Growth inhibition %
K-562 = assay: NCI-60 one-dose screen; format: cell-based; conditions: Homo sapiens, K562; K-562, Leukemia panel; single dose 10^−5 M; read-out: Growth inhibition %
SNB-75 = assay: NCI-60 one-dose screen; format: cell-based; conditions: Homo sapiens; SNB-75, CNS Cancer panel; single dose 10^−5 M; read-out: Growth inhibition %
COLO 205 = assay: NCI-60 one-dose screen; format: cell-based; conditions: Homo sapiens; COLO 205, Colon Cancer panel; single dose 10^−5 M; read-out: Growth inhibition %
HT29 = assay: NCI-60 one-dose screen; format: cell-based; conditions: Homo sapiens, HT-29; HT29, Colon Cancer panel; single dose 10^−5 M; read-out: Growth inhibition %
HL-60(TB) = assay: NCI-60 one-dose screen; format: cell-based; conditions: Homo sapiens, Leukemia panel, single dose 10^−5 M, read-out: Growth inhibition %

Clc1ccc(CNc2c3ccccc3nc3ccccc23)cc1 [Compound 13, Acridin-9-yl-(4-chlorobenzyl)-amine]
inhibition at 10 µM (SF-268): 32.1%
IC50 (PDE5A): > 10 µM
inhibition at 10 µM (PDE5A): 45.3 ± 3.99%
% Inhibition at 10 µM (CCD-966SK): 2.73 ± 4.11%
% Inhibition at 10 µM (HCT-116): 11.67 ± 4.59%
inhibition at 10 µM (OVCAR-8): 68.1%
inhibition at 10 µM (SR): 97.7%
inhibition at 10 µM (KM12): 64.4%
inhibition at 10 µM (NCI-H226): 24.5%
inhibition at 10 µM (CAKI-1): 58.6%
inhibition at 10 µM (SW-620): 69%
inhibition at 10 µM (UO-31): 73%
inhibition at 10 µM (MDA-MB-435): 39.3%
inhibition at 10 µM (MOLT-4): 95.4%
inhibition at 10 µM (HS 578T): 46.2%
inhibition at 10 µM (SK-MEL-28): 19.7%
inhibition at 10 µM (EKVX): 37.4%
inhibition at 10 µM (OVCAR-3): 48.9%
inhibition at 10 µM (BT-549): 29.1%
inhibition at 10 µM (786-0): 64.7%
inhibition at 10 µM (ACHN): 77.2%
inhibition at 10 µM (SK-MEL-5): 38.8%
inhibition at 10 µM (HCT-15): 76.7%
inhibition at 10 µM (MDA-MB-231/ATCC): 45.2%
inhibition at 10 µM (DU-145): 45.2%
inhibition at 10 µM (K-562): 95.7%
inhibition at 10 µM (SNB-75): 31.6%
inhibition at 10 µM (COLO 205): 91.4%
inhibition at 10 µM (HT29): 85%
inhibition at 10 µM (HL-60(TB)): 55.3%

c1coc(CNc2c3ccccc3nc3ccccc23)c1 [Compound 14, Acridin-9-yl-furan-2-ylmethyl-amine]
inhibition at 10 µM (SF-268): 14.3%
IC50 (PDE5A): 7.43 ± 2.69 µM
inhibition at 10 µM (PDE5A): 56.5 ± 7.38%
% Inhibition at 10 µM (CCD-966SK): 33.89 ± 0.85%
% Inhibition at 10 µM (HCT-116): 58.83 ± 1.72%
IC50 (HCT-116): 8.41 ± 0.19 µM
inhibition at 10 µM (OVCAR-8): 52.5%
inhibition at 10 µM (SR): 66%
inhibition at 10 µM (KM12): 14.5%
inhibition at 10 µM (NCI-H226): 37.1%
inhibition at 10 µM (CAKI-1): 59%
inhibition at 10 µM (SW-620): 57.7%
inhibition at 10 µM (UO-31): 60.5%
inhibition at 10 µM (MDA-MB-435): 12.4%
inhibition at 10 µM (MOLT-4): 72.8%
inhibition at 10 µM (HS 578T): 16%
inhibition at 10 µM (SK-MEL-28): 2.28%
inhibition at 10 µM (EKVX): 38%
inhibition at 10 µM (OVCAR-3): 3.11%
inhibition at 10 µM (BT-549): 2.59%
inhibition at 10 µM (786-0): 34.3%
inhibition at 10 µM (ACHN): 73.8%
inhibition at 10 µM (SK-MEL-5): 15.7%
inhibition at 10 µM (HCT-15): 55.8%
inhibition at 10 µM (MDA-MB-231/ATCC): 39.5%
inhibition at 10 µM (DU-145): 24%
inhibition at 10 µM (K-562): 55.3%
inhibition at 10 µM (SNB-75): 18.5%
inhibition at 10 µM (COLO 205): 64.8%
inhibition at 10 µM (HT29): 64.9%
inhibition at 10 µM (HL-60(TB)): 6.96%

Fc1cccc(CNc2c3ccccc3nc3ccccc23)c1F [Compound 20, Acridin-9-yl-(2,3-difluorobenzyl)-amine]
inhibition at 10 µM (SF-268): 16.6%
IC50 (PDE5A): 7.25 ± 2.21 µM
inhibition at 10 µM (PDE5A): 57.9 ± 6.04%
% Inhibition at 10 µM (CCD-966SK): 40.30 ± 3.56%
% Inhibition at 10 µM (HCT-116): 58.56 ± 3.21%
IC50 (HCT-116): 4.96 ± 0.02 µM
inhibition at 10 µM (OVCAR-8): 49.2%
inhibition at 10 µM (SR): 61.8%
inhibition at 10 µM (KM12): 13.1%
inhibition at 10 µM (NCI-H226): 27.1%
inhibition at 10 µM (CAKI-1): 54.3%
inhibition at 10 µM (SW-620): 58.6%
inhibition at 10 µM (UO-31): 60%
inhibition at 10 µM (MDA-MB-435): 12.7%
inhibition at 10 µM (MOLT-4): 71.6%
inhibition at 10 µM (HS 578T): 13%
inhibition at 10 µM (SK-MEL-28): 3.12%
inhibition at 10 µM (EKVX): 37.1%
inhibition at 10 µM (OVCAR-3): 13.9%
inhibition at 10 µM (BT-549): 9.44%
inhibition at 10 µM (786-0): 34.6%
inhibition at 10 µM (ACHN): 69.4%
inhibition at 10 µM (SK-MEL-5): 17%
inhibition at 10 µM (HCT-15): 60.5%
inhibition at 10 µM (MDA-MB-231/ATCC): 41.8%
inhibition at 10 µM (DU-145): 23.3%
inhibition at 10 µM (K-562): 56.6%
inhibition at 10 µM (SNB-75): 21.2%
inhibition at 10 µM (COLO 205): 59.1%
inhibition at 10 µM (HT29): 70.9%
inhibition at 10 µM (HL-60(TB)): 24%

Fc1ccc(CNc2c3ccccc3nc3ccccc23)c(F)c1 [Compound 21, Acridin-9-yl-(2,4-difluorobenzyl)-amine]
inhibition at 10 µM (SF-268): 31.4%
IC50 (PDE5A): > 10 µM
inhibition at 10 µM (PDE5A): 31.9 ± 8.01%
% Inhibition at 10 µM (CCD-966SK): 30.94 ± 0.86%
% Inhibition at 10 µM (HCT-116): 67.37 ± 0.67%
IC50 (HCT-116): 3.95 ± 0.82 µM
inhibition at 10 µM (OVCAR-8): 59.8%
inhibition at 10 µM (SR): 74.8%
inhibition at 10 µM (KM12): 40%
inhibition at 10 µM (NCI-H226): 45.2%
inhibition at 10 µM (CAKI-1): 64.7%
inhibition at 10 µM (SW-620): 70.2%
inhibition at 10 µM (UO-31): 69.7%
inhibition at 10 µM (MDA-MB-435): 33.5%
inhibition at 10 µM (MOLT-4): 76.2%
inhibition at 10 µM (HS 578T): 24.6%
inhibition at 10 µM (SK-MEL-28): 9.61%
inhibition at 10 µM (EKVX): 54.5%
inhibition at 10 µM (OVCAR-3): 29.8%
inhibition at 10 µM (BT-549): 17.2%
inhibition at 10 µM (786-0): 52.4%
inhibition at 10 µM (ACHN): 76.5%
inhibition at 10 µM (SK-MEL-5): 30.6%
inhibition at 10 µM (HCT-15): 71.3%
inhibition at 10 µM (MDA-MB-231/ATCC): 55.6%
inhibition at 10 µM (DU-145): 49.1%
inhibition at 10 µM (K-562): 77.5%
inhibition at 10 µM (SNB-75): 18.9%
inhibition at 10 µM (COLO 205): 73.2%
inhibition at 10 µM (HT29): 78.2%
inhibition at 10 µM (HL-60(TB)): 41.7%
